Molecular target: mouse TRPM3α2 (mTRPM3) ion channel (Mus musculus (Mouse), UniProt J9SQF3)
Assay: TRPM3 ion channel driven Ca2+ uptake, Fluo-4 AM assay, mTRPM3alpha2 overexpressing flip-in HEK293 cells stimulated with pregnenolone sulfate
Assay type: cell-based
Conditions: PS 50 μM, cpds 300-399
Outline: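 Read-out is Ca2+ influx via Fluo-4 AM fluorescence at 485/535 nm, taken right after seeding ~2000 cells/well onto compound with 50 μM PS. Inhibition computed from RFU between vehicle-stimulated and positive-control-inhibitor wells; cells were mTRPM3α2-overexpressing flip-in HEK293.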

Sequence of mouse TRPM3α2 (mTRPM3) ion channel (J9SQF3 other isoform, or with tags, fused parts or gaps): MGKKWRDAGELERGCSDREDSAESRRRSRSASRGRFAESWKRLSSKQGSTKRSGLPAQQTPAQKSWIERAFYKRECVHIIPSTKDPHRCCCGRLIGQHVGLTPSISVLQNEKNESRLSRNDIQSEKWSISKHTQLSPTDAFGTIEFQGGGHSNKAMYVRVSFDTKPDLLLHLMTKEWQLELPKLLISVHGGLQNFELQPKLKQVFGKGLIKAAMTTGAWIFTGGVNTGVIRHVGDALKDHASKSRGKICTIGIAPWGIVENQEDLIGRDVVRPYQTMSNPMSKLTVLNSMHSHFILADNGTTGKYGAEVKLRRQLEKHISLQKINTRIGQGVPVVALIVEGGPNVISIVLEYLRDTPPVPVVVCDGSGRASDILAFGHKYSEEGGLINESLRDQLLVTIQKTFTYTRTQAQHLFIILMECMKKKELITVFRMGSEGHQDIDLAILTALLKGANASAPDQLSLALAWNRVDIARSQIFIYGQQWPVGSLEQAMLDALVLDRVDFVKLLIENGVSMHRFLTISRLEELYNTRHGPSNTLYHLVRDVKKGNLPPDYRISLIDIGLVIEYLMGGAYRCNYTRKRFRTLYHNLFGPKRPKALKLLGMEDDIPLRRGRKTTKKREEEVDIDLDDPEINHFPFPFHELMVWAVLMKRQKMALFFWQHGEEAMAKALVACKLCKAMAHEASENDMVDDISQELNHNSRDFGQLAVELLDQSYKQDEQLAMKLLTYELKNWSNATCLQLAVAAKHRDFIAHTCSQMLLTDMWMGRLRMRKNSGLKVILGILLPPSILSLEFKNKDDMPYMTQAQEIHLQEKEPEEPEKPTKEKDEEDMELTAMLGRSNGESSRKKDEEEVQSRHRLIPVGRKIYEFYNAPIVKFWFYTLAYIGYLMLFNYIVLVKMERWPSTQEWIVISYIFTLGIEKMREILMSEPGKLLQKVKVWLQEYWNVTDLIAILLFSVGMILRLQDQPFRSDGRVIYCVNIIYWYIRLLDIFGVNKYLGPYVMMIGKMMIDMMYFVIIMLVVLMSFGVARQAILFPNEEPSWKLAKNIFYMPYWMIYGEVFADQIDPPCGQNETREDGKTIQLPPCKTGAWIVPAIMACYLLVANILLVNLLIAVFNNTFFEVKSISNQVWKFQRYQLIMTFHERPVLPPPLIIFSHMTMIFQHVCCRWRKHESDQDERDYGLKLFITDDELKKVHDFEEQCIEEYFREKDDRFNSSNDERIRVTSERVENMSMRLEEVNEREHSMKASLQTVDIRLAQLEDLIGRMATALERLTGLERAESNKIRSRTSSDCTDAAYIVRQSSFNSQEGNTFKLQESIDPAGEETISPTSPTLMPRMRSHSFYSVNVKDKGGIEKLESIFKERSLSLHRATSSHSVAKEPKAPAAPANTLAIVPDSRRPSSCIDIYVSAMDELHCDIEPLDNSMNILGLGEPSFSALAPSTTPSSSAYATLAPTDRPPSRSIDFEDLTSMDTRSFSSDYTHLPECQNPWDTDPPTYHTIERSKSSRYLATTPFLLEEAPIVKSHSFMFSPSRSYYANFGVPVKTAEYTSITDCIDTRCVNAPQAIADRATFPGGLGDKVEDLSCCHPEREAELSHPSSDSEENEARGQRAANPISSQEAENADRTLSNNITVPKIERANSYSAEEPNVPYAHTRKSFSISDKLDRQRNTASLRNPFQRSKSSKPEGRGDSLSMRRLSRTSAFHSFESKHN

IC50, < 1 µM:
Cc1ncsc1COc1ccc2oc(C)c(C(=O)NCC3(C#N)CC3)c2c1 [compound 371, N-((1-cyanocyclopropyl)methyl)-2-methyl-5-((4-methylthiazol-5-yl)methoxy)benzofuran-3-carboxamide]
Cc1ncc(COc2ccc3oc(C)c(C(=O)NCC4(F)CC4)c3c2)s1 [compound 372, N-((1-fluorocyclopropyl)methyl)-2-methyl-5-((2-methylthiazol-5-yl)methoxy)benzofuran-3-carboxamide]
Cc1ncsc1COc1ccc2oc(C)c(C(=O)NCC3(F)CC3)c2c1 [compound 373, N-((1-fluorocyclopropyl)methyl)-2-methyl-5-((4-methylthiazol-5-yl)methoxy)benzofuran-3-carboxamide]
Cc1ncsc1COc1ccc2oc(C)c(C(=O)NCc3cc[nH]n3)c2c1 [compound 374, N-((1H-pyrazol-3-yl)methyl)-2-methyl-5-((4-methylthiazol-5-yl)methoxy)benzofuran-3-carboxamide]
Cc1ncc(COc2ccc3oc(C)c(C(=O)N[C@H](C(N)=O)[C@@H](C)O)c3c2)o1 [compound 375, N-((2S,3R)-1-amino-3-hydroxy-1-oxobutan-2-yl)-2-methyl-5-((2-methyloxazol-5-yl)methoxy)benzofuran-3-carboxamide]
Cc1ncccc1COc1ccc2oc(C)c(C(=O)N[C@H](C(N)=O)[C@@H](C)O)c2c1 [compound 376, N-((2S,3R)-1-amino-3-hydroxy-1-oxobutan-2-yl)-2-methyl-5-((2-methylpyridin-3-yl)methoxy)benzofuran-3-carboxamide]
Cc1ncc(COc2ccc3oc(C)c(C(=O)N[C@H](C(N)=O)[C@@H](C)O)c3c2)s1 [compound 377, N-((2S,3R)-1-amino-3-hydroxy-1-oxobutan-2-yl)-2-methyl-5-((2-methylthiazol-5-yl)methoxy)benzofuran-3-carboxamide]
Cc1ncsc1COc1ccc2oc(C)c(C(=O)N[C@H](C(N)=O)[C@@H](C)O)c2c1 [compound 378, N-((2S,3R)-1-amino-3-hydroxy-1-oxobutan-2-yl)-2-methyl-5-((4-methylthiazol-5-yl)methoxy)benzofuran-3-carboxamide]
Cc1ccc(COc2ccc3oc(C)c(C(=O)N[C@H](C(N)=O)[C@@H](C)O)c3c2)cn1 [compound 380, N-((2S,3R)-1-amino-3-hydroxy-1-oxobutan-2-yl)-2-methyl-5-((6-methylpyridin-3-yl)methoxy)benzofuran-3-carboxamide]
Cc1nc(C)c(COc2ccc3oc(C)c(C(=O)N[C@H](C(N)=O)[C@@H](C)O)c3c2)s1 [compound 382, N-((2S,3R)-1-amino-3-hydroxy-1-oxobutan-2-yl)-5-((2,4-dimethylthiazol-5-yl)methoxy)-2-methylbenzofuran-3-carboxamide]
Cc1oc2ccc(OCc3c(F)cnn3C)cc2c1C(=O)N[C@H](C(N)=O)[C@@H](C)O [compound 383, N-((2S,3R)-1-amino-3-hydroxy-1-oxobutan-2-yl)-5-((4-fluoro-1-methyl-1H-pyrazol-5-yl)methoxy)-2-methylbenzofuran-3-carboxamide]
Cc1ncc(COc2ccc3oc(C)c(C(=O)NCC4(F)COC4)c3c2)s1 [compound 384, N-((3-fluorooxetan-3-yl)methyl)-2-methyl-5-((2-methylthiazol-5-yl)methoxy)benzofuran-3-carboxamide]
Cc1ncsc1COc1ccc2oc(C)c(C(=O)NCC3(F)COC3)c2c1 [compound 385, N-((3-fluorooxetan-3-yl)methyl)-2-methyl-5-((4-methylthiazol-5-yl)methoxy)benzofuran-3-carboxamide]
Cc1oc2ccc(OCc3cccnc3C(F)(F)F)cc2c1C(=O)N[C@@H]1C(=O)NC[C@H]1O [compound 390, N-((3S,4R)-4-hydroxy-2-oxopyrrolidin-3-yl)-2-methyl-5-((2-(trifluoromethyl)pyridin-3-yl)methoxy)benzofuran-3-carboxamide]
Cc1ncc(COc2ccc3oc(C)c(C(=O)N[C@@H]4C(=O)NC[C@H]4O)c3c2)s1 [compound 391, N-((3S,4R)-4-hydroxy-2-oxopyrrolidin-3-yl)-2-methyl-5-((2-methylthiazol-5-yl)methoxy)benzofuran-3-carboxamide]
Cc1ncsc1COc1ccc2oc(C)c(C(=O)N[C@@H]3C(=O)NC[C@H]3O)c2c1 [compound 392, N-((3S,4R)-4-hydroxy-2-oxopyrrolidin-3-yl)-2-methyl-5-((4-methylthiazol-5-yl)methoxy)benzofuran-3-carboxamide]
Cc1ncc(COc2ccc3oc(C)c(C(=O)NCC4(F)CCOCC4)c3c2)s1 [compound 393, N-((4-fluorotetrahydro-2H-pyran-4-yl)methyl)-2-methyl-5-((2-methylthiazol-5-yl)methoxy)benzofuran-3-carboxamide]
Cc1ncsc1COc1ccc2oc(C)c(C(=O)NCC3(F)CCOCC3)c2c1 [compound 394, N-((4-fluorotetrahydro-2H-pyran-4-yl)methyl)-2-methyl-5-((4-methylthiazol-5-yl)methoxy)benzofuran-3-carboxamide]
Cc1ncsc1COc1ccc2oc(C)c(C(=O)NC(C)(C)C(=O)NCCO)c2c1 [compound 398, N-(1-((2-hydroxyethyl)amino)-2-methyl-1-oxopropan-2-yl)-2-methyl-5-((4-methylthiazol-5-yl)methoxy)benzofuran-3-carboxamide]
Cc1ncc(COc2ccc3oc(C)c(C(=O)NC4(COC(F)F)CC4)c3c2)s1 [compound 399, N-(1-((difluoromethoxy)methyl)cyclopropyl)-2-methyl-5-((2-methylthiazol-5-yl)methoxy)benzofuran-3-carboxamide]

Same assay, conditions: PS (50 μM) stimulated, cpds. 400-499

IC50, < 1 µM:
Cc1ncsc1COc1ccc2oc(C)c(C(=O)NC3(COC(F)F)CC3)c2c1 [compound 400, N-(1-((difluoromethoxy)methyl)cyclopropyl)-2-methyl-5-((4-methylthiazol-5-yl)methoxy)benzofuran-3-carboxamide]
Cc1ncc(COc2ccc3oc(C)c(C(=O)NC4(CO)CCC4)c3c2)s1 [compound 414, N-(1-(hydroxymethyl)cyclobutyl)-2-methyl-5-((2-methylthiazol-5-yl)methoxy)benzofuran-3-carboxamide]
Cc1oc2ccc(OCc3ccccn3)cc2c1C(=O)NC1(CO)CCC1 [compound 415, N-(1-(hydroxymethyl)cyclobutyl)-2-methyl-5-(pyridin-2-ylmethoxy)benzofuran-3-carboxamide]
Cc1oc2ccc(OCc3cccnc3O)cc2c1C(=O)NC1(CO)CCC1 [compound 416, N-(1-(hydroxymethyl)cyclobutyl)-5-((2-hydroxypyridin-3-yl)methoxy)-2-methylbenzofuran-3-carboxamide]
COc1ncccc1COc1ccc2oc(C)c(C(=O)NC3(CO)CCC3)c2c1 [compound 417, N-(1-(hydroxymethyl)cyclobutyl)-5-((2-methoxypyridin-3-yl)methoxy)-2-methylbenzofuran-3-carboxamide]
Cc1ncc(COc2ccc3oc(C)c(C(=O)NC4(CO)CC4)c3c2)s1 [compound 418, N-(1-(hydroxymethyl)cyclopropyl)-2-methyl-5-((2-methylthiazol-5-yl)methoxy)benzofuran-3-carboxamide]
Cc1oc2ccc(OCc3ccccn3)cc2c1C(=O)NC1(CO)CC1 [compound 419, N-(1-(hydroxymethyl)cyclopropyl)-2-methyl-5-(pyridin-2-ylmethoxy)benzofuran-3-carboxamide]
Cc1oc2ccc(OCc3cccnc3O)cc2c1C(=O)NC1(CO)CC1 [compound 420, N-(1-(hydroxymethyl)cyclopropyl)-5-((2-hydroxypyridin-3-yl)methoxy)-2-methylbenzofuran-3-carboxamide]
COc1ncccc1COc1ccc2oc(C)c(C(=O)NC3(CO)CC3)c2c1 [compound 421, N-(1-(hydroxymethyl)cyclopropyl)-5-((2-methoxypyridin-3-yl)methoxy)-2-methylbenzofuran-3-carboxamide]
Cc1oc2ccc(OCc3nccn3C)cc2c1C(=O)NC(C)(CO)CO [compound 422, N-(1,3-dihydroxy-2-methylpropan-2-yl)-2-methyl-5-((1-methyl-1H-imidazol-2-yl)methoxy)benzofuran-3-carboxamide]
Cc1oc2ccc(OCc3ccnn3C)cc2c1C(=O)NC(C)(CO)CO [compound 423, N-(1,3-dihydroxy-2-methylpropan-2-yl)-2-methyl-5-((1-methyl-1H-pyrazol-5-yl)methoxy)benzofuran-3-carboxamide]
Cc1oc2ccc(OCc3cccnc3C(F)(F)F)cc2c1C(=O)NC(C)(CO)CO [compound 424, N-(1,3-dihydroxy-2-methylpropan-2-yl)-2-methyl-5-((2-(trifluoromethyl)pyridin-3-yl)methoxy)benzofuran-3-carboxamide]
Cc1ncc(COc2ccc3oc(C)c(C(=O)NC(C)(CO)CO)c3c2)s1 [compound 425, N-(1,3-dihydroxy-2-methylpropan-2-yl)-2-methyl-5-((2-methylthiazol-5-yl)methoxy)benzofuran-3-carboxamide]
Cc1ncsc1COc1ccc2oc(C)c(C(=O)NC(C)(CO)CO)c2c1 [compound 426, N-(1,3-dihydroxy-2-methylpropan-2-yl)-2-methyl-5-((4-methylthiazol-5-yl)methoxy)benzofuran-3-carboxamide]
Cc1oc2ccc(OCc3cccnn3)cc2c1C(=O)NC(C)(CO)CO [compound 427, N-(1,3-dihydroxy-2-methylpropan-2-yl)-2-methyl-5-(pyridazin-3-ylmethoxy)benzofuran-3-carboxamide]
